Data reported in US8901111B2, “Aryl-substituted heterocyclic urea modulators of fatty acid amide hydrolase” (Janssen Pharmaceutica NV, priority 2009, dated 2014).
Where a name gives a salt, the structure may show the parent alone.

Tests used:
[1] = target: T1, rat FAAH (Rattus norvegicus, UniProt P97612); assay: Assay Method 2: FAAH assay, 3H-anandamide hydrolysis in homogenate of cells transfected with rat FAAH; format: biochemical; settings: cell homogenate, 3H-AEA 80 nM, 1 h at rt, average of results
T1 construct: expressed in transfected cells; crude homogenate
T1 sequence (P97612 1-579): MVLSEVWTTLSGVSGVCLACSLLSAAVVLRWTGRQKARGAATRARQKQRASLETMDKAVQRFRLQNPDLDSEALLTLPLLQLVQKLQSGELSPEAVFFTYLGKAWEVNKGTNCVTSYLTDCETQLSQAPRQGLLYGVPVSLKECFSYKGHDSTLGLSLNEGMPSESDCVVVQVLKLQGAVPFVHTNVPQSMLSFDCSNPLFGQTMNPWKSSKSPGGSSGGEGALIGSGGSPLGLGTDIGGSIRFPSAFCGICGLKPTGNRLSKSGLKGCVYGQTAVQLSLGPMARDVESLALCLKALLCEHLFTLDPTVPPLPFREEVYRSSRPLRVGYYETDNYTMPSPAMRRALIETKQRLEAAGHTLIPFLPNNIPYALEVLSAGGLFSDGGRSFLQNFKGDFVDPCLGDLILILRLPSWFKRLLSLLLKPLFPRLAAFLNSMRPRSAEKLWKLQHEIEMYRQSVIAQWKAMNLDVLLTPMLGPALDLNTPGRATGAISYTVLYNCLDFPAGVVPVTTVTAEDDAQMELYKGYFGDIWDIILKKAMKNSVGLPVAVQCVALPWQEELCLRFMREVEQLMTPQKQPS
Protocol: A. Transfection of Cells with Rat FAAH
(§1) A 10-cm tissue culture dish with a confluent monolayer of SK-N-MC cells was split 2 days (d) prior to transfection. Using sterile technique, the media was removed and the cells were detached from the dish by the addition of trypsin. One fifth of the cells were then placed onto a new 10-cm dish. Cells were grown in a 37° C. incubator with 5% CO2 in Minimal Essential Media Eagle with 10% Fetal Bovine Serum. After 2 d, cells were approximately 80% confluent. These cells were removed from the dish with trypsin and pelleted in a clinical centrifuge. The pellet was re-suspended in 400 μL complete media and transferred to an electroporation cuvette with a 0.4 cm gap between the electrodes. Supercoiled rat FAAH cDNA (1 μg) was added to the cells and mixed. The voltage for the electroporation was set at 0.25 kV, and the capacitance was set at 960 μF. After electroporation, the cells were diluted into complete media (10 mL) and plated onto four 10-cm dishes. Because of the variability in the efficiency of electroporation, four different concentrations of cells were plated. The ratios used were 1:20, 1:10, and 1:5, with the remainder of the cells being added to the fourth dish. The cells were allowed to recover for 24 h before adding the selection media (complete media with 600 μg/mL G418). After 10 d, dishes were analyzed for surviving colonies of cells. Dishes with well-isolated colonies were used. Cells from individual colonies were isolated and tested.
(§2) T84 frozen cell pellets or transfected SK-N-MC cells (contents of 1×15 cm culture dishes) were homogenized in 50 mL of FAAH assay buffer (125 mM Tris, 1 mM EDTA, 0.2% Glycerol, 0.02% Triton X-100, 0.4 mM Hepes, pH 9). The assay mixture consisted of 50 μL of the cell homogenate, 10 μL of the test compound, and 40 μL of anandamide [1-^3H-ethanolamine] (^3H-AEA, Perkin-Elmer, 10.3 Ci/mmol), which was added last, for a final tracer concentration of 80 nM. The reaction mixture was incubated at rt for 1 h. During the incubation, 96-well Multiscreen filter plates (catalog number MAFCNOB50; Millipore, Bedford, Mass., USA) were loaded with 25 μL of activated charcoal (Multiscreen column loader, catalog number MACL09625, Millipore) and washed once with 100 μL of MeOH. Also during the incubation, 96-well DYNEX MicroLite plates (catalog number NL510410) were loaded with 100 μL of MicroScint40 (catalog number 6013641, Packard Bioscience, Meriden, Conn., USA). After the 1 h incubation, 60 μL of the reaction mixture were transferred to the charcoal plates, which were then assembled on top of the DYNEX plates using Centrifuge Alignment Frames (catalog number MACF09604, Millipore). The unbound labeled ethanolamine was centrifuged through to the bottom plate (5 min at 2000 rpm), which was preloaded with the scintillant, as described above. The plates were sealed and left at rt for 1 h before counting on a Hewlett Packard TopCount.
(§3) Results for compounds tested in these assays are summarized in Table 1, as an average of results obtained. Compounds were tested in the free base or trifluoroacetic acid salt form. Compounds tested in the trifluoroacetic acid salt form are indicated as such by a “*” designation after the example number. Where activity is shown as greater than (>) a particular value, the value is the solubility limit of the compound in the assay medium or the highest concentration tested in the assay.

[2] = target: T2, FAAH (Homo sapiens, UniProt O00519); assay: Assay Method 1: FAAH assay, 3H-anandamide hydrolysis in homogenate of cells transfected with human FAAH; format: biochemical; design: expressed in transfected cells; crude homogenate (T84 cell pellets named as alternative); settings: cell homogenate, 3H-AEA 80 nM, 1 h at rt, average of results
T2 sequence (O00519 1-579): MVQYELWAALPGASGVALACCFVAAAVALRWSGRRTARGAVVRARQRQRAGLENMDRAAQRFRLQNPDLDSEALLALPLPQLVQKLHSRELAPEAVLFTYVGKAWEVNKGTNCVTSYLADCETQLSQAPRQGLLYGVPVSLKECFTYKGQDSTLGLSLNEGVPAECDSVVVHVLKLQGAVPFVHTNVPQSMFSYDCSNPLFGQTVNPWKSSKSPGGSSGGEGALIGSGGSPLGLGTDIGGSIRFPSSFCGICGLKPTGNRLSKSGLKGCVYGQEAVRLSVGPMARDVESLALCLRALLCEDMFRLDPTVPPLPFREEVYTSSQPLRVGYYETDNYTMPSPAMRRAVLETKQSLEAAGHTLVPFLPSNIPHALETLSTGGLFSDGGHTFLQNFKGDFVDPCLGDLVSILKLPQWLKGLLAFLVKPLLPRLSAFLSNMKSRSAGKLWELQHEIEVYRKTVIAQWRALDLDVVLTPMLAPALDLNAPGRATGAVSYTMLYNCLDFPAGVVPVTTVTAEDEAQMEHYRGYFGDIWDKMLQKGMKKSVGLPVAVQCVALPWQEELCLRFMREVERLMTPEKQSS
Protocol: A. Transfection of Cells with Human FAAH
as §1, with “Supercoiled human” for “Supercoiled rat”, “[…]” for “960 μF.”
as §2, §3

| IC50 [1] | IC50 [2] | Compound |
| --- | --- | --- |
| 27 nM | 13 nM | O=C(Nc1cccnc1)N1CC(CCOc2cccc(Oc3ccc(Cl)cc3)c2)C1 [Example 44, 3-{2-[3-(4-Chloro-phenoxy)-phenoxy]-ethyl}-azetidine-1-carboxylic acid pyridin-3-ylamide] |
| 820 nM | 140 nM | C#Cc1cccc(OCCC2CN(C(=O)Nc3cccnc3)C2)c1 [Example 37, 3-[2-(3-Ethynyl-phenoxy)-ethyl]-azetidine-1-carboxylic acid pyridin-3-ylamide, trifluoroacetate salt] |
| 5 nM | 1 nM | O=C(Nc1cnccc1Cl)N1CC(CCOc2cccc(Oc3ccc(Cl)cn3)c2)C1 [Example 48, 3-{2-[3-(5-Chloro-pyridin-2-yloxy)-phenoxy]-ethyl}-azetidine-1-carboxylic acid (4-chloro-pyridin-3-yl)-amide] |
| 3000 nM | > 10000 nM | O=C(Nc1cccnc1)N1CC(COc2ccc(OC(F)(F)F)cc2)C1 [Example 5, 3-(4-Trifluoromethoxy-phenoxymethyl)-azetidine-1-carboxylic acid pyridin-3-ylamide] |
| 430 nM | 200 nM | O=C(Nc1cccnc1)N1CC(CCOc2ccc3ccccc3n2)C1 [Example 36, 3-[2-(Quinolin-2-yloxy)-ethyl]-azetidine-1-carboxylic acid pyridin-3-ylamide] |
| 480 nM | 15 nM | CS(=O)(=O)c1ccc(Oc2cccc(OCCC3CN(C(=O)Nc4cccnc4)C3)c2)cc1 [Example 27, 3-{2-[3-(4-Methanesulfonyl-phenoxy)-phenoxy]-ethyl}-azetidine-1-carboxylic acid pyridin-3-ylamide] |
| > 10000 nM | > 10000 nM | O=C(Nc1cccnc1)N1CC(COc2ccc(Oc3ccccc3)cc2)C1 [Example 16, 3-(4-Phenoxy-phenoxymethyl)-azetidine-1-carboxylic acid pyridin-3-ylamide] |
| 400 nM | 53 nM | O=C(Nc1cccnc1)N1CC(CCOc2cccc(Oc3ccc(OC(F)(F)F)cc3)c2)C1 [Example 29, 3-{2-[3-(4-Trifluoromethoxy-phenoxy)-phenoxy]-ethyl}-azetidine-1-carboxylic acid pyridin-3-ylamide] |
| > 10000 nM | > 10000 nM | O=C(Nc1cccnc1)N1CC(COc2ccc(-c3ccccc3)cc2)C1 [Example 18, 3-(Biphenyl-4-yloxymethyl)-azetidine-1-carboxylic acid pyridin-3-ylamide] |
| 615 nM | 1600 nM | O=C(Nc1cccnc1)N1CC(CCOc2cccc(C(F)(F)F)c2)C1 [Example 46, 3-[2-(3-Trifluoromethyl-phenoxy)-ethyl]-azetidine-1-carboxylic acid pyridin-3-ylamide] |

Further lines, the compound ahead of its results:

| Compound | IC50 [1] | IC50 [2] |
| --- | --- | --- |
| O=C(Nc1noc2ccccc12)N1CCC(Cc2ccc3c(c2)OC(F)(F)O3)C1 (stereo not drawn) [Example 72, 3-(2,2-Difluoro-benzo[1,3]dioxol-5-ylmethyl)-pyrrolidine-1-carboxylic acid benzo[d]isoxazol-3-ylamide] | 770 nM | > 10000 nM |
| O=C(Nc1cnccc1Cl)N1CC[C@@H](COc2cccc(Oc3ccc(Cl)cc3)c2)C1 [Example 56, (3R)-3-[3-(4-Chloro-phenoxy)-phenoxymethyl]-pyrrolidine-1-carboxylic acid (4-chloro-pyridin-3-yl)-amide] | 2 nM | 4 nM |
| O=C(Nc1cnc2[nH]ccc2c1)N1CC(CCOc2cccc(Oc3ccc(Cl)cc3)c2)C1 [Example 40, 3-{2-[3-(4-Chloro-phenoxy)-phenoxy]-ethyl}-azetidine-1-carboxylic acid (1H-pyrrolo[2,3-b]pyridin-5-yl)-amide] | 4 nM | 3 nM |
| O=C(Nc1cccnc1)N1CCC(COc2cccc(Oc3ccc(Cl)cc3)c2)C1 (stereo not drawn) [Example 51, 3-{[3-(4-Chlorophenoxy)phenoxy]methyl}-N-pyridin-3-ylpyrrolidine-1-carboxamide] | 62 nM | 200 nM |
| O=C(Nc1cnccc1Cl)N1CCC(CCOc2ccc(Cl)c(Cl)c2)C1 (stereo not drawn) [Example 58, 3-[2-(3,4-Dichloro-phenoxy)-ethyl]-pyrrolidine-1-carboxylic acid (4-chloro-pyridin-3-yl)-amide] | 700 nM | 300 nM |
| O=C(Nc1cnccc1Cl)N1CCC(CCOc2cccc(OC(F)(F)F)c2)C1 (stereo not drawn) [Example 61, 3-[2-(3-Trifluoromethoxy-phenoxy)-ethyl]-pyrrolidine-1-carboxylic acid (4-chloro-pyridin-3-yl)-amide] | 1600 nM | 1600 nM |
| O=C(Nc1cncc2ccccc12)N1CC(CCOc2cccc(Oc3ccc(Cl)cc3)c2)C1 [Example 38, 3-{2-[3-(4-Chloro-phenoxy)-phenoxy]-ethyl}-azetidine-1-carboxylic acid isoquinolin-4-ylamide] | 5 nM | 27 nM |
| O=C(Nc1cnccc1Cl)N1CCC(Cc2cccc(Oc3ccc(F)cc3)c2)C1 (stereo not drawn) [Example 75, 3-[3-(4-Fluoro-phenoxy)-benzyl]-pyrrolidine-1-carboxylic acid (4-chloro-pyridin-3-yl)-amide] | 30 nM | 45 nM |
